Data set [1] has as its system platelets of guinea-pig. The data set can be described thus: Inhibition of the platelet aggregation induced by U46619 (BORN test), guinea-pig platelets. As to conditions: read-out: PLATELET AGGREGATION GUINEA-PIG IC 50. It counts as cell-based. The method, boiled down:
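Guinea-pig platelet aggregation at threshold level triggered by U46619, the stable TXA2 analogue. IC50 taken as the concentration inhibiting this aggregation by 50%.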

In data set [2] the test system is rat aorta. Nature of the data set: Inhibition of the U46619 induced rat aorta vasoconstriction. As to conditions: contraction by U46619 (142 nM), rat thoracic aorta, 37° C., read-out: VASOCONSTRICTION RAT AORTA IC 50. It counts as cell-based. The method, boiled down: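 Spiral strips of thoracic aorta from ~300 g male rats in oxygenated Krebs-Henseleit at 37° C., isotonic recording. Contraction induced by U46619 142 nM; compound added 10 mn after agonist and inhibition read after 15 mn. IC50 from at least 3 aortas.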

The nature of data set [3]: Lethal dose 50 on the rat by intravenous injection. As to conditions: in vivo. On the procedure:
The compounds of this invention are characterized by their absence of toxicity. By way of illustration, for the compound described in example 20, the lethal dose 50 determined on the rat, by intravenous injection is higher than 150 mg/kg.

Where two headings read alike, the source gives them in different places.

`O=C(O)Cc1ccc(CC2(CNS(=O)(=O)c3ccc(Cl)cc3)CCCC2)cc1` [Example 20, Sodium 4-[[1-[[[(4-chlorophenyl)sulfonyl]amino]methyl]cyclopentyl]methyl]benzeneacetate]: the values for the IC50 in data set [1] and in data set [2] were 0.28 µM and 0.07 µM, respectively. Further, in data set [3], the 50% lethal dose (LD50) was above 150 mg/kg.
For the compound `CCCCCCOc1ccc(S(=O)(=O)NCC2(Cc3ccc(CC(=O)O)cc3)CCCC2)cc1` [Example 97, 4-[[1-[[[(4-Hexyloxyphenyl)sulfonyl]amino]methyl]cyclopentyl]methyl]benzeneacetic acid], the IC50 is 5.9 µM in data set [1] (Cavia porcellus, Platelet) and above 1 µM in data set [2] (Rattus norvegicus).
On the same counts, the results for `O=C(O)Cc1ccc(CC2(CNS(=O)(=O)c3ccccc3F)CCCC2)cc1` [Example 98, 4-[[1-[[[(2-Fluorophenyl)sulfonyl]amino]methyl]cyclopentyl]methyl]benzeneacetic acid] are 0.25 µM and 0.32 µM.
For `O=C(O)Cc1ccc(CC2(CNS(=O)(=O)c3ccc(C4CCCCC4)cc3)CCCC2)cc1` [Example 99, 4-[[1-[[[(4-Cyclohexylphenyl)sulfonyl]amino]methyl]cyclopentyl]methyl]benzeneacetic acid], in that order: above 5 µM and above 1 µM.
On to `O=C(O)Cc1ccc(CC2(CNS(=O)(=O)c3c(F)c(F)c(F)c(F)c3F)CCCC2)cc1` [Example 100, 4-[[1-[[[(Pentafluorophenyl)sulfonyl]amino]methyl]cyclopentyl]methyl]benzeneacetic acid], for which the IC50 in data set [1] (Cavia porcellus, Platelet) was above 5 µM; in data set [2] (Rattus norvegicus) it was above 1 µM.
Regarding `O=C(O)Cc1ccc(CC2(CNS(=O)(=O)c3ccc(-c4ccccc4)cc3)CCCC2)cc1` [Example 101, 4-[[1-[[([1,1'-Biphenyl-4-yl]sulfonyl)amino]methyl]cyclopentyl]methyl]benzeneacetic acid], the IC50 in data set [1] (Cavia porcellus, Platelet) is above 5 µM; in data set [2] (Rattus norvegicus) it was above 1 µM.
On the same counts, the results for `CSc1ccc(S(=O)(=O)NCC2(Cc3ccc(CC(=O)O)cc3)CCCC2)cc1` [Example 103, 4-[[1-[[[(4-methylthiophenyl]sulfonyl]amino]methyl]cyclopentyl]methyl]benzeneacetic acid] are 1 µM and 0.18 µM.
On the same counts, the results for `CN(C)c1cccc2c(S(=O)(=O)NCC3(Cc4ccc(CC(=O)O)cc4)CCCC3)cccc12` [Example 104, 4-[[1-[[[[5-(Dimethylamino)naphthalen-1-yl]sulfonyl]amino]methyl]cyclopentyl]methyl]benzeneacetic acid] are above 5 µM and above 1 µM.
`O=C(O)Cc1ccc(CC2(CNS(=O)(=O)c3ccc(Cl)cc3F)CCCC2)cc1` [Example 105, 4-[[1-[[[(4-Chloro-2-fluorophenyl)sulfonyl]amino]methyl]cyclopentyl]methyl]benzeneacetic acid]: the IC50 stood at 0.57 µM in data set [1] (Cavia porcellus, Platelet) and 0.11 µM in data set [2] (Rattus norvegicus).
Take “Complex of sodium 4-[[1-[[[(4-chlorophenyl)sulfonyl]amino]methyl]cyclopentyl]methyl]benzeneacetate and β-cyclodextrine (1:1) [Example 23]”: the IC50 in data set [1] was determined as 0.48 µM; in data set [2], 0.04 µM.
For “Complex of sodium trans-4-[[2-[[(4-chlorophenyl)sulfonyl]amino]cyclopentyl]methyl]benzeneacetate and β-cyclodextrine (1:1) [Example 22]”, in that order: 0.71 µM and 0.15 µM.

The values are drawn from patent US5387709A, “Substituted sulfonamides, process of preparation and medicines containing same” (Lipha Lyonnaise Industrielle Pharmaceutique, priority 1990, dated 1995).
